# Data from ChEMBL document CHEMBL3232731, “Diterpene glycosides and polyketides from Xylotumulus gibbisporus” (J Nat Prod, 2014).
# pIC50: −log10 of the molar value.
# What was measured:
# RAW264.7 [1] = test: Cytotoxicity against mouse RAW264.7 cells by Alamar Blue assay; assay type: cell-based
# RAW264.7 [2] = test: Antiinflammatory activity in mouse RAW264.7 cells assessed as inhibition of LPS-induced nitric oxide production by spectrophotometric analysis; assay type: functional, cell-based
# Candida albicans [3] = test: Antifungal activity against Candida albicans ATCC MYA-2876 by NCCLS method; assay type: functional
# Candida albicans [4] = test: Antifungal activity against Candida albicans ATCC 18804 by NCCLS method; assay type: functional
# Saccharomyces cerevisiae = test: Antifungal activity against Saccharomyces cerevisiae ATCC 2345 by NCCLS method; assay type: functional
SMILES,Activity (RAW264.7 [1]),pIC50 (RAW264.7 [2]),MIC (Candida albicans [3]) [µg/mL],MIC (Candida albicans [4]) [µg/mL],MIC (Saccharomyces cerevisiae) [µg/mL]
CO[C@H]1[C@@H](O)[C@H](O)[C@H](OC[C@@]23C[C@@H]4[C@H](C)CC[C@H]4[C@@]4(C=O)C[C@@H]2C(=O)C(=C(C)C)[C@@]34C(=O)O)O[C@@H]1C,Non-toxic,3.49,–,–,–
N=C(NCCC[C@H](N)C(=O)O)N[N+](=O)[O-] [NITROARGININE],–,3.83,–,–,–
N=C(N)NN [PIMAGEDINE],–,4.65,–,–,–
CO[C@H]1[C@@H](O)[C@H](O)[C@H](OC[C@@]23C[C@@H]4[C@H](C)CC[C@H]4[C@@]4(C=O)CC2C=C(C(C)C)[C@@]34C(=O)O)O[C@@H]1C [SORDARIN],Non-toxic,3.80,32,64,32
